Laboratory results published in US20040147494A1, “Use” (priority 2001, published 2004).
Read-outs that look alike come from different tables or passages of the source.

How the values were obtained:
11 β-HSD type 2 = molecular target: T1, 11 β-HSD type 2 (Rattus norvegicus, UniProt P50233); test: biochemical; settings: for inhibition at 10 µM: read-out: % […]→E ± SD, inhibitor 10 μM
T1 construct: Both the kidneys and livers were homogenised on ice in PBS- sucrose buffer; tissue Harlan Olac, Bicester, Oxon, UK (rats); host or cells: rat kidney homogenate supernatant (Wistar rat)
T1 sequence (P50233 1-400): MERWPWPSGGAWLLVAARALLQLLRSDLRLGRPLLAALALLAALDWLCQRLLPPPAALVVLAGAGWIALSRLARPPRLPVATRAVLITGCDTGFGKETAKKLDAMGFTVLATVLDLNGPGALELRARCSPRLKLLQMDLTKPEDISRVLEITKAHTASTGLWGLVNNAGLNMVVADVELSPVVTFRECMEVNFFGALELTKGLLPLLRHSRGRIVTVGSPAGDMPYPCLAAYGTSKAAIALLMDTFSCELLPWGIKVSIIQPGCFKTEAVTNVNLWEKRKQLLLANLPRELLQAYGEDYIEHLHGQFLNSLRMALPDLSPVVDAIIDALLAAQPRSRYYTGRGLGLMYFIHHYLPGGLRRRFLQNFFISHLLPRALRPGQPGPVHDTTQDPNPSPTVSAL
Description: Enzymes—Rat livers and rat kidneys were obtained from normal Wistar rats (Harlan Olac, Bicester, Oxon,UK). Both the kidneys and livers were homogenised on ice in PBS- sucrose buffer (1 g/10 ml) using an Ultra-Turrax. After the livers and kidneys were homogenised the homogenate was centrifuged for five minutes at 4000 rpm. The supernatant obtained was removed and stored in glass vials at −20° C. The amount of protein per μl of rat liver and kidney cytosol was determined using the Bradford method.
The same procedure was used for the 11 β-HSD type 2 assay, the conversion F to E, to determine the amount of rat kidney to be used and the incubation time.
In these assays the influence of different inhibitors on the 11 β-HSD activity both in reductive (type 1) and oxidative (type 2) directions were assessed. In the reductive direction E is the substrate and F the product and visa versa in the case of oxidation. The method described here is for the oxidative direction.
The substrate solution contained about 50,000 cpm/ml ^3H—F in PBS-sucrose and 0.5 pM F. 1 ml of the substrate solution was added to each tube, the inhibitors were also added, at a 10 μM concentration, to each tube except to the “control” and “blank” tubes. 150 μL was added to all tubes except to the blanks, this was done to correct for the amount of ^3H[…]. The tubes were incubated for 60 minutes in a mechanically shaken water bath at 37° C. […] After incubation 50 μL of recovery was added to correct for the losses made in the next steps, containing 5000 cpm/50 μL of ^14C-E and 50 μg/50 μL of unlabelled E (to visualise the spot on the TLC-plate). The aqueous mixture was then extracted with 4 ml of ether (2×30 sec cycle, vortex mix). After freezing the aqueous phase, the ether (upper) layer was decanted into smaller tubes and evaporated at 45° C. until completely dry. The residue was then re-dissolved in 6 drops of ether and transferred to a TLC-plate. The TLC-plate was developed in chloroform:methanol (9:1 v/v) solvent system, the TLC-plate ran for about 90 minutes until the solvent front had moved about 18 cm. The position of the product E was visualised under UV-light and cut out from the TLC-plate and put into scintillation vials. Radioactivity was eluted over 5 minutes with 0.5 ml methanol. 0.5 ml of PBS- sucrose and 10 ml of Ecoscint were then added and vortex mixed before counting in the scintillation counter. Before counting the samples, two total activity vials were prepared. These contained 0.5 ml of the substrate solution, 50 μL of the recovery, 0.5 ml of methanol and 10 ml of Ecoscint. These two total activity vials were needed to determine the amount of ^14C-E and ^3H—F added in the beginning to make the calculations.
To look at the percentage of inhibition four different concentrations, 1, 5, 10 and 20 μM, were used. The method for both the rat liver, type 1 the reductive, and rat kidney, type 2 the oxidative, stay the same throughout the entire experiment.
In this experiment the influence of different inhibitors on the conversion E to F and F to E was determined. The reason why inhibition in both directions was examined was to make a comparison between the inhibitors and which type of 11 β-HSD they inhibit more. Thirty-two compounds were screened for their ability to inhibit 11 β-HSD type 1 (E to F) and type 2 (F to E). […] The percent of inhibition was calculated as the percentage of decrease in radio labelled ^3H-E and ^3H—F of product formed, compared with the control activity (the tubes without an inhibitor in it). All the results calculated are means, n=2.

11 β-HSD type 1 = molecular target: T2, 11 β-HSD type 1 (Rattus norvegicus, UniProt P16232); test: biochemical; assay type: biochemical; settings: rat liver cytosol 25 μL, 90 min, 37° C., cortisone (E) to cortisol (F), vs control without inhibitor, means n=2; for inhibition at 10 µM: read-out: % […]→F ± SD, inhibitor 10 μM; for % INHIBITION E→F ± SD: inhibitor 10 μM
T2 construct: Both the kidneys and livers were homogenised on ice in PBS- sucrose buffer; tissue Harlan Olac, Bicester, Oxon, UK (rats); host or cells: rat liver homogenate supernatant (Wistar rat)

[1] = rat kidney cytosol 150 μL, 60 min, 37° C., cortisol (F) to cortisone (E), vs control without inhibitor, means n=2, read-out: % INHIBITION F→E ± SD
[2] = read-out: % INHIBITION E→F ± SD

T2 sequence (P16232 whole entry): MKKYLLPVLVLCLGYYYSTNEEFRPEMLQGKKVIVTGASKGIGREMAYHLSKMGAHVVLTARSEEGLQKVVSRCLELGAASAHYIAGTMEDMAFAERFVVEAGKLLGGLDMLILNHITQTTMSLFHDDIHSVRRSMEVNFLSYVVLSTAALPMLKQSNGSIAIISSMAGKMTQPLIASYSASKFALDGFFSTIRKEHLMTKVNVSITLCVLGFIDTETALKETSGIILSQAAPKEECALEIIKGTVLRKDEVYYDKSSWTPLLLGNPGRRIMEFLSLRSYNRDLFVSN

Compound | inhibition at 10 µM (11 β-HSD type 2; [1]) | inhibition at 10 µM (11 β-HSD type 1; [2]) | also measured
CC1(C)C2CC[C@]3(C)C([C@H](O)C=C4[C@@H]5C[C@@](C)(CO)CC[C@]5(C)CC[C@]43C)[C@@]2(C)CC[C@@H]1O (stereo partly shown) [STX 351] | 94.41 ± 0.63% | 70 ± 6.39% | –
CC1(C)C(O)CC[C@@]2(C)C1CC[C@]1(C)C2CC=C2[C@@H]3C[C@@](C)(C(=O)OCc4ccccc4)CC[C@]3(C)CC[C@]21C (stereo partly shown) [STX 296] | 33.8 ± 15.8% | 37.7 ± 8.85% | –
CCOC(=O)[C@H](C)NC(=O)[C@@]1(C)CC[C@]2(C)CC[C@]3(C)C(=CC(=O)[C@@H]4[C@@]5(C)CC[C@H](O)C(C)(C)C5CC[C@]43C)[C@@H]2C1 (stereo partly drawn) [STX 369, 18β-Glycyrrhetinic Acid L-alanine Ethyl Ester Amide] | 35.4 ± 12.6% | 24.9 ± 2.51% | –
CC1(C)C2CC[C@]3(C)[C@H](C(=O)C=C4[C@@H]5C[C@@](C)(C(=O)NCCN6CCOCC6)CC[C@]5(C)CC[C@]43C)[C@@]2(C)CC[C@@H]1O (stereo partly shown) [STX 372, 18-Glycyrrhetinic Acid (2-morpholin-4-yl-ethyl)-amide] | 65.8 ± 20.9% | 19.4 ± 7.81% | –
CC1(C)[C@@H](O)CC[C@]2(C)[C@H]3C(=O)C=C4[C@@H]5C[C@@](C)(C(=O)O)CC[C@]5(C)CC[C@@]4(C)[C@]3(C)CC[C@@H]12 [STX352, 3β-Hydroxy-11-oxo-18β,20β-olean-12-en-29-oic acid, reference compound] | – | 85.2 ± 3.69% | –
C[C@]12CCC(=O)C=C1CCC1C2C(O)C[C@]2(C)C(=O)CCC12 (stereo partly drawn) [11β-OH-Androstenedione, reference compound] | 40.9 ± 4.67% | 55.2 ± 0.26% | –
CCOC(=O)[C@@]1(C)CC[C@]2(C)CC[C@]3(C)C(=CC(=O)C4[C@@]5(C)CC[C@H](OCc6ccccc6)C(C)(C)C5CC[C@]43C)[C@@H]2C1 (stereo partly shown) [STX 297] | 58.7 ± 10.4% | 34.3 ± 8.26% | –
CO[C@H]1CC[C@@]2(C)C(CC[C@]3(C)C2C(=O)C=C2[C@@H]4C[C@@](C)(C(=O)O)CC[C@]4(C)CC[C@]23C)C1(C)C (stereo partly drawn) [STX195a, 3β-Methoxy-11-oxo-18β-glycerrhetinic acid] | 90.3 ± 1.98% | 53 ± 1.02% | –
CC1(C)C2CC[C@]3(C)C(CC=C4[C@@H]5C[C@@](C)(C(=O)O)CC[C@]5(C)CC[C@]43C)[C@@]2(C)CC[C@@H]1O (stereo partly drawn) [STX122, 11-Deoxo-18β-glycerrhetinic acid] | 109 ± 1.64% | 92.7 ± 1.23% | –
CC1(C)C2CC[C@]3(C)[C@H](C(=O)C=C4[C@@H]5C[C@@](C)(C(=O)NCc6ccccc6)CC[C@]5(C)CC[C@]43C)[C@@]2(C)CC[C@@H]1O (stereo partly drawn) [STX 366, 18β-Glycyrrhetinic Acid Benzylamide] | – | 85.2 ± 1.09% | –
COC(=O)[C@@]1(C)CC[C@]2(C)CC[C@]3(C)C(=CC(=O)[C@@H]4[C@@]5(C)CC[C@H](OCc6ccc(C(C)(C)C)cc6)C(C)(C)C5CC[C@]43C)[C@@H]2C1 (stereo partly shown) [STX 360] | 26.4 ± 11.6% | 14.7 ± 2.4% | –
CC1(C)[C@@H](O)CC[C@]2(C)[C@H]3C(=O)C=C4[C@H]5C[C@@](C)(C(=O)O)CC[C@]5(C)CC[C@@]4(C)[C@]3(C)CC[C@@H]12 [STX353, 3β-Hydroxy-11-oxo-18α,20β-olean-12-en-29-oic acid, reference compound] | – | 89 ± 1.49% | –
CC(C)(C)OC(=O)[C@@]1(C)CC[C@]2(C)CC[C@]3(C)C(=CC(=O)C4[C@@]5(C)CC[C@H](O)C(C)(C)C5CC[C@]43C)[C@@H]2C1 (stereo partly shown) [STX 298] | 22.6 ± 12.9% | 50.6 ± 4.43% | –
CC1(C)C(=O)CC[C@]2(C)C3C(=O)C=C4[C@H]5C[C@@](C)(C(=O)O)CC[C@]5(C)CC[C@@]4(C)[C@]3(C)CC[C@@H]12 (stereo partly drawn) [BLE99005, 3,11-Dioxo-18α-olean-12-en-30-oic acid] | – | 87% | % INHIBITION E→F ± SD (11 β-HSD type 1; 10 µM): 86.9 ± 0.882%
CC1(C)C2CC[C@]3(C)C(C(=O)C=C4[C@@H]5C[C@@](C)(C(=O)OCc6ccccc6)CC[C@]5(C)CC[C@]43C)[C@@]2(C)CC[C@@H]1O (stereo partly shown) [STX 348] | 94.77 ± 0.17% | 63.4 ± 1.45% | –
CCO[C@H]1CC[C@@]2(C)C(CC[C@]3(C)C2C(=O)C=C2[C@@H]4C[C@@](C)(C(=O)O)CC[C@]4(C)CC[C@]23C)C1(C)C (stereo partly drawn) [STX196a, 3β-Ethoxy-11-oxo-18β-glycerrhetinic acid] | 93.9 ± 1.77% | 55 ± 0.022% | –
Deoxycorticosterone [reference compound] | – | – | % INHIBITION F→E ± SD (11 β-HSD type 2; inhibitor 10 μM, rat kidney cytosol 150 μL, 60 min, 37° C., cortisol (F) to cortisone (E), vs control without inhibitor, means n=2): 53.3 ± 1.273%; % INHIBITION E→F ± SD (11 β-HSD type 1): 70.2 ± 1.655%
COC(=O)[C@@]1(C)CC[C@]2(C)CC[C@]3(C)C(=CC(=O)C4[C@@]5(C)CCC(=O)C(C)(C)C5CC[C@]43C)[C@@H]2C1 (stereo partly drawn) [STX194, Methyl 3-oxo-18β-glycerrhetate] | 75 ± 2.93% | 65.8 ± 5.69% | –
CC(=O)C1CCC2C3CCC4=CC(=O)CC[C@]4(C)C3[C@H](O)C[C@]12C (stereo partly shown) [DG322B, 11-hydroxy-Progesterone] | – | 32.6 ± 3.75% | –
CC1(C)C2CC[C@]3(C)C(CC=C4[C@@H]5C[C@@](C)(CO)CC[C@]5(C)CC[C@]43C)[C@@]2(C)CC[C@@H]1O (stereo partly shown) [STX 350] | 60.3 ± 3.99% | 13.4 ± 9.63% | –
CC(=O)[C@H]1CC[C@H]2[C@@H]3CC=C4C[C@@H](O)CC[C@]4(C)[C@H]3CC[C@]12C [Pregnenolone, reference compound] | – | – | inhibition at 10 µM (11 β-HSD type 2; rat kidney cytosol 150 μL, 60 min, 37° C., cortisol (F) to cortisone (E), vs control without inhibitor, means n=2): 42.1 ± 0.777%; inhibition at 10 µM (11 β-HSD type 1): 49.8 ± 9.36%
CC1(C)[C@@H](O)CC[C@]2(C)[C@H]3C(=O)C=C4[C@@H]5C[C@@](C)(C(=O)OCCc6ccccc6)CC[C@]5(C)CC[C@@]4(C)[C@]3(C)CC[C@@H]12 [STX197, 3β-hydroxy-11-oxo-18β-glycyrrhetinic acid phenylethyl ester] | – | – | % INHIBITION E→F ± SD (11 β-HSD type 1): 53.0 ± 0.935%
C[C@H](CCC(=O)O)[C@H]1CC[C@H]2[C@@H]3CC[C@@H]4C[C@H](O)CC[C@]4(C)[C@H]3C[C@H](O)[C@]12C [Deoxycholic acid, reference compound] | -1.1 ± 8.27% | 27.6 ± 7.85% | stimulation of 11 β-HSD type 2 (F to E) (11 β-HSD type 2; inhibitor 10 μM, rat kidney, printed as stimulation, not inhibition): 1%
CC1(C)C(=O)CC[C@@]2(C)C1CC[C@]1(C)C2C(=O)C=C2[C@@H]3C[C@@](C)(C(=O)O)CC[C@]3(C)CC[C@]21C (stereo partly drawn) [STX 347, 3-Oxo-18β-glycerrhetinic acid] | – | 89.37 ± 0.1% | –
